Measurements published in patent US10758517B2, “mPGES-1 inhibitor for the treatment of osteoarthritis pain” (Glenmark Pharmaceuticals S.A., priority 2017, dated 2020).

Assays:
LPS-induced PGE2 release = test: Ex vivo LPS-induced PGE2 release in whole blood, single ascending oral doses (Example 1, Part 1a); parameters: species or system human; details: for EAUC0-24 h, Difference in LS mean versus placebo / EAUC0-24 h, LS mean / EAUC0-336 h, Difference in LS mean versus placebo / EAUC0-336 h, LS mean / ETmax (time to reach maximum effect), Median / ETmax, Median difference versus placebo / Epeak (maximum % inhibition), LS mean / Epeak, Difference in LS mean versus placebo: fasted healthy subjects
Experimental: (§1) In Part 1a, single doses of Compound I of 10 mg (Group A), 30 mg (Group B), 100 mg (Group C), 250 mg (Group D), 500 mg (Group E) and 1000 mg (Group F) were administered after fasting. In each dose group, 6 subjects received Compound I and 2 subjects received placebo.
In Parts 1a and 3, whole blood samples were incubated and analyzed for lipopolysaccharide (LPS)-induced prostaglandin PGE2 release. In Part 3, urine samples were collected for analysis of prostanoid metabolites.
(§2) Summary statistics were presented for the PK, pharmacodynamic (PD) and safety data, as appropriate. PK parameters following single oral doses of Compound I were determined from the plasma concentrations of Compound I using non-compartmental procedures in WinNonlin Dose proportionality was assessed using a power model, with tmax analyzed using the Kruskal-Wallis test. The effect of food on PK was assessed at the 100 and 250 mg doses using a mixed effects model. The effect of age on PK was assessed for elderly (>65 years) versus non-elderly (<65 years) at the 250 mg dose level in Parts 1a and 2, using an analysis of variance (ANOVA) with age as a fixed effect. For PD analyses, percent decrease of ex vivo LPS-induced PGE2 release was calculated. For Part 3, urinary excretion of prostanoid metabolites was also evaluated. The data are presented as absolute, as well as creatinine normalized urinary biomarker amounts, along percent change from baseline over a definite time interval. The percent change from baseline in urinary biomarkers was assessed using an analysis of covariance (ANCOVA) model
Percent change in ex vivo LPS-induced PGE2 release in whole blood is the pharmacodynamic (PD) biomarker. The PGE2 levels in whole blood were estimated using the homogeneous time-resolved fluorescence method.
Concentrations below the limit of quantification were treated as ½ the lower limit of quantification for calculation.
Time points where unstimulated PGE2 concentration was more than 3 times greater than the mean unstimulated PGE2 and equal to or greater than ½ baseline value for an individual subject were not included in the calculation of percent inhibition. If pre-dose LPS-induced PGE2 was less than unstimulated PGE2, the value was not used for calculation of percent inhibition.

[1] = Plasma pharmacokinetics after single oral doses (Example 1); assay type: in vivo, human; details: for dose proportionality of exposure: single oral doses
Experimental: as §1
In Part 2, a dose of 250 mg was administered after fasting. 6 subjects received Compound I and 2 subjects received placebo.
Blood and urine samples for the analysis of plasma and urinary concentrations of Compound I.
as §2

[2] = Safety and tolerability of single oral doses (Example 1); assay type: in vivo, human; details: single doses up to 1000 mg
Experimental: as §1
Adverse events (AEs), vital signs, 12-lead electrocardiogram (ECG), clinical laboratory evaluations and physical examination.
as §2

- dose proportionality of exposure ([1]; 10 to 250 mg dose range): Near proportional increases
- pharmacokinetic differences in elderly subjects ([1]; elderly subjects, single dose 250 mg): No notable pharmacokinetic differences
- dose proportionality of exposure ([1]; higher doses (250 to 1000 mg)): sub-proportional increases
- half-life ([1]; human, plasma, single oral doses 10 to 1000 mg, independent of dose, read-out: mean T1/2): 41.7 to 54.5 h
- Tmax ([1]; human, plasma, single oral doses of 10 and 30 mg, read-out: median Tmax): 2 h
Compound: CC(C)(C)C(=O)NCc1ccc(Cl)c(-c2nn(-c3ccc(C(F)(F)F)cc3)c(=O)[nH]2)c1 [Compound I, N-(4-chloro-3-(5-oxo-1-(4-(trifluoromethyl)phenyl)-4,5-dihydro-1H-1,2,4-triazol-3-yl)benzyl)pivalamide]
- persistence of inhibition (LPS-induced PGE2 release; 1000 mg single dose): still apparent at 336 hours
- time for which near maximal inhibition was retained (LPS-induced PGE2 release; 250 and 500 mg single doses): at least 168 hours
- time for which reduction in PGE2 release was apparent (LPS-induced PGE2 release; lower doses, post-dose): approximately 24 hours
- EAUC0-24 h, Difference in LS mean versus placebo (LPS-induced PGE2 release; single oral dose 10 mg): 956 % · h
- EAUC0-24 h, LS mean (LPS-induced PGE2 release; single oral dose 10 mg): 898 % · h
- EAUC0-336 h, Difference in LS mean versus placebo (LPS-induced PGE2 release; single oral dose 10 mg): −5321 % · h
- EAUC0-336 h, LS mean (LPS-induced PGE2 release; single oral dose 10 mg): −3824 % · h
- ETmax (time to reach maximum effect), Median (LPS-induced PGE2 release; single oral dose 10 mg): 4.00 h
- ETmax, Median difference versus placebo (LPS-induced PGE2 release; single oral dose 10 mg): -8.02 h
- Epeak (maximum % inhibition), LS mean (LPS-induced PGE2 release; single oral dose 10 mg): 77.7%
- Epeak, Difference in LS mean versus placebo (LPS-induced PGE2 release; single oral dose 10 mg): 9.90%
- EAUC0-24 h, Difference in LS mean versus placebo (LPS-induced PGE2 release; single oral dose 30 mg): 1028 % · h
- EAUC0-24 h, LS mean (LPS-induced PGE2 release; single oral dose 30 mg): 970 % · h
- EAUC0-336 h, Difference in LS mean versus placebo (LPS-induced PGE2 release; single oral dose 30 mg): 7240 % · h
- EAUC0-336 h, LS mean (LPS-induced PGE2 release; single oral dose 30 mg): 8736 % · h
- ETmax (time to reach maximum effect), Median (LPS-induced PGE2 release; single oral dose 30 mg): 3.04 h
- ETmax, Median difference versus placebo (LPS-induced PGE2 release; single oral dose 30 mg): -8.98 h
- Epeak (maximum % inhibition), LS mean (LPS-induced PGE2 release; single oral dose 30 mg): 72.8%
- Epeak, Difference in LS mean versus placebo (LPS-induced PGE2 release; single oral dose 30 mg): 4.94%
- EAUC0-24 h, Difference in LS mean versus placebo (LPS-induced PGE2 release; single oral dose 100 mg): 1709 % · h
- EAUC0-24 h, LS mean (LPS-induced PGE2 release; single oral dose 100 mg): 1650 % · h
- EAUC0-336 h, Difference in LS mean versus placebo (LPS-induced PGE2 release; single oral dose 100 mg): 10115 % · h
- EAUC0-336 h, LS mean (LPS-induced PGE2 release; single oral dose 100 mg): 11612 % · h
- ETmax (time to reach maximum effect), Median (LPS-induced PGE2 release; single oral dose 100 mg): 7.02 h
- ETmax, Median difference versus placebo (LPS-induced PGE2 release; single oral dose 100 mg): -7.50 h
- Epeak (maximum % inhibition), LS mean (LPS-induced PGE2 release; single oral dose 100 mg): 91.6%
- Epeak, Difference in LS mean versus placebo (LPS-induced PGE2 release; single oral dose 100 mg): 23.8%
- EAUC0-24 h, Difference in LS mean versus placebo (LPS-induced PGE2 release; single oral dose 250 mg): 1608 % · h
- EAUC0-24 h, LS mean (LPS-induced PGE2 release; single oral dose 250 mg): 1550 % · h
- EAUC0-336 h, Difference in LS mean versus placebo (LPS-induced PGE2 release; single oral dose 250 mg): 12965 % · h
- EAUC0-336 h, LS mean (LPS-induced PGE2 release; single oral dose 250 mg): 14461 % · h
- ETmax (time to reach maximum effect), Median (LPS-induced PGE2 release; single oral dose 250 mg): 2.03 h
- ETmax, Median difference versus placebo (LPS-induced PGE2 release; single oral dose 250 mg): -9.94 h
- Epeak (maximum % inhibition), LS mean (LPS-induced PGE2 release; single oral dose 250 mg): 92.8%
- Epeak, Difference in LS mean versus placebo (LPS-induced PGE2 release; single oral dose 250 mg): 24.9%
- EAUC0-24 h, Difference in LS mean versus placebo (LPS-induced PGE2 release; single oral dose 500 mg): 1766 % · h
- EAUC0-24 h, LS mean (LPS-induced PGE2 release; single oral dose 500 mg): 1707 % · h
- EAUC0-336 h, Difference in LS mean versus placebo (LPS-induced PGE2 release; single oral dose 500 mg): 16417 % · h
- EAUC0-336 h, LS mean (LPS-induced PGE2 release; single oral dose 500 mg): 17914 % · h
- ETmax (time to reach maximum effect), Median (LPS-induced PGE2 release; single oral dose 500 mg): 12.0 h
- ETmax, Median difference versus placebo (LPS-induced PGE2 release; single oral dose 500 mg): -0.0333 h
- Epeak (maximum % inhibition), LS mean (LPS-induced PGE2 release; single oral dose 500 mg): 87.7%
- Epeak, Difference in LS mean versus placebo (LPS-induced PGE2 release; single oral dose 500 mg): 19.9%
- EAUC0-24 h, Difference in LS mean versus placebo (LPS-induced PGE2 release; single oral dose 1000 mg): 1086 % · h
- EAUC0-24 h, LS mean (LPS-induced PGE2 release; single oral dose 1000 mg): 1028 % · h
- EAUC0-336 h, Difference in LS mean versus placebo (LPS-induced PGE2 release; single oral dose 1000 mg): 17780 % · h
- EAUC0-336 h, LS mean (LPS-induced PGE2 release; single oral dose 1000 mg): 19277 % · h
- ETmax (time to reach maximum effect), Median (LPS-induced PGE2 release; single oral dose 1000 mg): 144 h
- ETmax, Median difference versus placebo (LPS-induced PGE2 release; single oral dose 1000 mg): 112 h
- Epeak (maximum % inhibition), LS mean (LPS-induced PGE2 release; single oral dose 1000 mg): 81.8%
- Epeak, Difference in LS mean versus placebo (LPS-induced PGE2 release; single oral dose 1000 mg): 14.0%
- inhibition of ex vivo LPS-induced PGE2 release (in words) (LPS-induced PGE2 release; single oral doses from 10 mg to 1000 mg): marked dose-dependent inhibition
- dose effect on incidence or severity of treatment-emergent AEs [2]: no evidence of a dose effect
- lab abnormalities or ECG findings [2]: No clinically significant lab abnormalities or ECG findings
- tolerability ([2]; healthy adult subjects): well tolerated
